Laboratory results published in US20110195041A1, “ANTIMICROBIAL COMPOSITIONS” (NDSU RESEARCH FOUNDATION, priority 2008, published 2011).
In brackets after ≈: the same amount, converted by molar mass.

Key:
S. epidermidis = test: Minimum inhibitory concentration (MIC) of triclosan; assay type: cell-based; conditions: Staphylococcus epidermidis; tryptic soy broth; range 0.2 to 25 μg/mL; complete growth inhibition
Experimental: (§1) The antimicrobial activity of triclosan toward the microorganisms of interest was determined by measuring the minimum inhibitor concentration (MIC). The protocol for determining the minimum inhibitory concentration (MIC) of antimicrobial agents in solution has been reported previously (described in Stafslien, S., et al., Biofouling, 2007. 23(1/2): 37-44.). Triclosan was serially diluted (2-fold) in marine broth, tryptic soy broth, and Guillard's F/2 medium for the MIC evaluation of C. lytica, S. epidermidis or E. coli, and N. incerta, respectively. The triclosan concentration range evaluated was from 0.2 μg/mL to 25 μg/mL.

C. lytica = test: as above; assay type: cell-based; conditions: Cellulophaga lytica; marine broth; range 0.2 to 25 μg/mL; complete growth inhibition
Experimental: as §1

## Oc1cc(Cl)ccc1Oc1ccc(Cl)cc1Cl [Triclosan, 5-chloro-2-(2,4-dichlorophenoxy)phenol]
S. epidermidis
  MIC: ≤ 0.2 µg/mL
C. lytica
  MIC: 12.5 µg/mL (≈ 43.2 µM)
